Columns and labels:
[1] = biological target: T1, EP2 (Homo sapiens, UniProt P43116); experiment: EP2 cAMP assay; assay type: cell-based
Excerpt: (§1) U.S. patent application Ser. No. 11/553,143, filed on Oct. 26, 2006, incorporated by reference herein, describes the methods used to obtain the in vitro data in Tables 1 and 2 below.

[2] = biological target: T1, EP2; experiment: EP2 Ca2+ signal assay; assay type: cell-based; conditions: for EP2 Ca2+ signal % PGE2: relative to PGE2
Excerpt: as §1

[3] = biological target: T1, EP2; experiment: EP2 binding assay
Excerpt: as §1

[4] = biological target: T2, EP4 (Homo sapiens, UniProt P35408); experiment: EP4 Ca2+ signal assay; assay type: cell-based; conditions: for EP4 Ca2+ signal % PGE2: relative to PGE2
T2 sequence (P35408 whole entry): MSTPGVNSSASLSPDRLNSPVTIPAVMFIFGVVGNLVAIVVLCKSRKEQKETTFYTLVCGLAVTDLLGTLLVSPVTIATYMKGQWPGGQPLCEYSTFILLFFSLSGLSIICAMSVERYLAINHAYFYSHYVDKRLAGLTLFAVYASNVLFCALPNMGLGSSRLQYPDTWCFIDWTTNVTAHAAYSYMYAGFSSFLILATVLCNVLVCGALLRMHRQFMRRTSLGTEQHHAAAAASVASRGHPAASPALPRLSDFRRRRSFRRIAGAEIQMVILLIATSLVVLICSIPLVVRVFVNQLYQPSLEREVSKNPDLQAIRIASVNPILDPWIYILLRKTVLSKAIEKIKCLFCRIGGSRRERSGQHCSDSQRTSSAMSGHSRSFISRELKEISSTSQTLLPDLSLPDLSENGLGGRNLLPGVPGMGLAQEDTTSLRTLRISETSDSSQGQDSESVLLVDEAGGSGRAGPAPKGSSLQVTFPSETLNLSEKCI
Excerpt: as §1

[5] = biological target: T2, EP4; experiment: EP4 binding assay
Excerpt: as §1

[6] = biological target: T3, EP1 (Homo sapiens, UniProt P34995); experiment: EP1 functional assay; assay type: cell-based
T3 sequence (P34995 1-402): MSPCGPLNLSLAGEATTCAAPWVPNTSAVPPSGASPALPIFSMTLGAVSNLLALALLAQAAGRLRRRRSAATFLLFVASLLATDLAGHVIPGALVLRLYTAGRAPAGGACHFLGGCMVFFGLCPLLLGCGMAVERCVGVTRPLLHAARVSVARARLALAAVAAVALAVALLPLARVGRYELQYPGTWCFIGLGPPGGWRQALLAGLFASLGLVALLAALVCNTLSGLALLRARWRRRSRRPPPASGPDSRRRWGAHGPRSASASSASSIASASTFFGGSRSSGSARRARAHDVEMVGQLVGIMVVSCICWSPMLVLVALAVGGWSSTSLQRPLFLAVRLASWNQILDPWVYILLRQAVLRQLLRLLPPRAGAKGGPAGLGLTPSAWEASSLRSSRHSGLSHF
Excerpt: as §1

[7] = biological target: T4, EP3 (Homo sapiens, UniProt P43115); experiment: EP3 functional assay; assay type: cell-based
T4 sequence (P43115 1-390): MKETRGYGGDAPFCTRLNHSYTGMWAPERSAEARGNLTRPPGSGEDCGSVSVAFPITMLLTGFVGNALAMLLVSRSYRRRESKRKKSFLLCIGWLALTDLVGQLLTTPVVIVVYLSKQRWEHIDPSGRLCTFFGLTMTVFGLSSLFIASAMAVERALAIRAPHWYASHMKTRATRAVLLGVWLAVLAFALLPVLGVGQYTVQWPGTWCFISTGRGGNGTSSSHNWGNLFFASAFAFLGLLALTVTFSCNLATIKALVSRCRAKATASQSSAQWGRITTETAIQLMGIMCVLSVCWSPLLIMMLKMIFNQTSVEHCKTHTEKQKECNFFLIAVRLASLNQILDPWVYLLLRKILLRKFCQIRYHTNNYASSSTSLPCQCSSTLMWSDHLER
Excerpt: as §1

[8] = biological target: T5, TP (Homo sapiens, UniProt P21731); experiment: TP functional assay; assay type: cell-based
T5 sequence (P21731 1-343): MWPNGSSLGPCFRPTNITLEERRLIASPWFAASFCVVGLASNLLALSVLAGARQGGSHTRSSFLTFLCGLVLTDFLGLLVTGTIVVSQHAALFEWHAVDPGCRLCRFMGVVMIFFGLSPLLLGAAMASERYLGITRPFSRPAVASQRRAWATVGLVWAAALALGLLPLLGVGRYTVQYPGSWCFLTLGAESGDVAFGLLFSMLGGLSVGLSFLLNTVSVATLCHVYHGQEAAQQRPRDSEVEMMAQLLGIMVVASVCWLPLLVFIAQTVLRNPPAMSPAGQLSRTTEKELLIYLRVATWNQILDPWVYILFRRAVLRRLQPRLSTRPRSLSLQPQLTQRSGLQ
Excerpt: as §1

T1 sequence (P43116 whole entry): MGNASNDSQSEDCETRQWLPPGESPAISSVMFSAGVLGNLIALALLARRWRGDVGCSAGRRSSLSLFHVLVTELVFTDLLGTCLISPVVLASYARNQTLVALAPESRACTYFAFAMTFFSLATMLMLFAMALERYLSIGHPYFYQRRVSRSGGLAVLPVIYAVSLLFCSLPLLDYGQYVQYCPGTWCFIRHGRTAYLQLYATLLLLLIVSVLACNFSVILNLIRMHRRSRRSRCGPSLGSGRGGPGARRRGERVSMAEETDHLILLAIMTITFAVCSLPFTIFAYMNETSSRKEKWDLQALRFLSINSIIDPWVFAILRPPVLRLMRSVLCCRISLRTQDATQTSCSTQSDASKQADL

## C[C@@H](O)CCC[C@H](O)/C=C/[C@@H]1[C@@H](C/C=C\CCCC(=O)O)[C@H](Cl)C[C@H]1O
[1]
  EC50: 0.03 nM
[2]
  EC50: 4 nM
  EP2 Ca2+ signal % PGE2: 107%
[3]
  EC50: 25 nM
  EP2 Binding % Inh: 99%
[4]
  EC50: 46 nM
  EP4 Ca2+ signal % PGE2: 107%
[5]
  EC50: 885 nM
  EP4 Binding % Inh: 81%
[6]
  EC50: 13 nM
[7]
  EC50: 6 nM
[8]
  EC50: 178 nM

## C[C@@H](O)CCC[C@H](O)/C=C/[C@@H]1[C@@H](CCCCCCC(=O)O)[C@H](Cl)C[C@H]1O
[1]
  EC50: 1.47 nM
[2]
  EC50: 109 nM
  EP2 Ca2+ signal % PGE2: 100%
[3]
  EC50: 1220 nM
  EP2 Binding % Inh: 78%
[4]
  EC50: 727 nM
  EP4 Ca2+ signal % PGE2: 99%
[5]
  EP4 Binding % Inh: 29%
